Here are results for four molecules from patent US11149004B2, “Crystalline form of EB-1020, processes for preparation and use thereof” (priority 2017, dated 2021).

Entries after “also recorded” stand apart in the source; their conditions may differ. Like-named read-outs stand apart in the source and are kept apart here. Marks after values point to notes of the source that are not given here.

Data set [1] can be described thus: Grinding stability of Form CS1, prior art Form A and Form B. Type of data set: physicochemical. The following applies: ground manually for 5 minutes in a mortar, XRPD, hydrochloride. The protocol: A certain amount of Form CS1, prior art Form A and Form B were ground manually for 5 minutes in a mortar. The XRPD patterns of Form CS1 before and after grinding are as depicted in FIG. 8 (top: before grinding; bottom: after grinding). The XRPD patterns of prior art Form A before and after grinding are as depicted in FIG. 9 (top: before grinding; bottom: after grinding). The XRPD patterns of prior art Form B before and after grinding are as depicted in FIG. 10 (top: before grinding; bottom: after grinding).

A short description of data set [2]: Kinetic solubility in FaSSIF and FeSSIF. Format: physicochemical. The conditions noted are these: for Solubility (mg/mL) eSSIF / Solubility (mg/mL) FaSSIF: hydrochloride. An excerpt: High Performance Liquid Chromatography (HPLC) data for solubility test in the present disclosure were collected from an Agilent 1260 with Diode Array Detector (DAD). The method parameters are as follows:
Simulated gastrointestinal fluids such as FaSSIF (Fasted state simulated intestinal fluids) and FeSSIF (Fed state simulated intestinal fluids) are biorelevant media. Solubility in such media is close to in vivo solubility, because these media can reflect the effects of intestinal environment on drug release better.
A certain amount of Form CS1, prior art Form A and Form B were suspended in FaSSIF and FeSSIF to get saturated solutions. After equilibration for 4 h, concentrations (mg/mL) of the saturated solutions were measured by HPLC.

A short description of data set [3]: Morphology (polarizing microscope, PLM). Format: physicochemical. An excerpt:
Morphology of Form CS1 of the present disclosure was checked by a polarizing microscope (PLM), and the PLM image is shown in FIG. 11. […] Form CS1 has better flowability and is more suitable for processing and preparing drug product.

Data set [4] is described as follows: Physical stability of Form CS1 under different pressures (tableting). Format: physicochemical. The conditions noted are these: for Crystalline form after tableting: XRPD. An excerpt: A certain amount of Form CS1 were compressed into pellets under different pressures with suitable tableting die. Crystalline forms before and after tableting were checked by XRPD.

Data set [5] is described as follows: Adhesiveness of Form CS1 (material sticking to the punch). Type of data set: physicochemical. The protocol:
30 mg of Form CS1 were weighed and then added into the dies of φ8 mm round tooling, compressed at 10 KN and held for 30s. The punch was weighed and the amount of material sticking to the punch was calculated. The compression was repeated twice and the cumulative amount, maximum amount and average amount of material sticking to the punch during the compression were recorded.

Data set [6] is described as follows: Compressibility of Form CS1 (tensile strength). Type of data set: physicochemical. The protocol: A manual tablet press was used for compression. A certain amount of Form CS1 were added into the dies of round tooling and compressed at certain pressure manually, the tablet was stored in a desiccator for 24 h until complete elastic recovery. Hardness (H) was tested with an Intelligent Tablet Hardness Tester. Diameter (D) and thickness (L) were tested with a caliper. Tensile strength of the powder was calculated with the following formula: T=2H/πDL. Under a certain force, the greater the tensile strength, the better the compressibility.

For data set [7] the following is noted: according to WO2016205762A paragraph [00179]; cited from earlier work.
Data set [8] can be described thus: Storage stability of prior art Form C. Format: physicochemical. The following applies: room temperature, a month; found by the inventors. An excerpt: The prior art WO2016205762A disclosed Form A, Form B and Form C of EB-1020.
For data set [9] the following is noted: 40° C./75% RH, two weeks; per WO2016205762A paragraph [00232]; cited from earlier work.
The mark [10] stands for this setting: 30 mg, φ8 mm round tooling, 10 KN, held 30s.
[11] abbreviates: φ6 mm round tooling, 80 mg, 10 kN, after 24 h elastic recovery.
[12] abbreviates: FaSSIF, equilibration 4 h, HPLC.

For the molecule `Cl.c1ccc2cc([C@]34CNC[C@H]3C4)ccc2c1` [Form CS1, (1R,5S)-1-(naphthalen-2-yl)-3-azabicyclo[3.1.0]hexane hydrochloride], in data set [1], the “Crystalline form after grinding” value is recorded as “remains unchanged” and the Crystallinity after grinding entry was “remained substantially unchanged; also recorded: little change in crystallinity”. For the same molecule, the solubility at 4 h in data set [2] (FaSSIF (fasted state simulated intestinal fluid), fassif, thermodynamic from solid, FaSSIF, equilibration 4 h, HPLC, read-out: Solubility (mg/mL) FaSSIF) is 75.3 mg/mL. Moreover, the “Solubility compared with prior art Form A and Form B” value in [2] (FaSSIF and FeSSIF) is “higher”. Further, in data set [2] (FeSSIF), the “Solubility relative to prior art Form A and Form B” value is “almost twice”. Moreover, the “Solubility (mg/mL) eSSIF” value in [2] (equilibration 4 h, HPLC) amounted to 74.8 mg/mL. The Morphology result in [3] is recorded as “spherical or short rod-like crystal”. In addition, in [4] (Pressure 3 kN), the “Crystalline form after tableting” value was “Form CS1”. Further, the “Crystalline form after tableting” value in [4] (Pressure 7 kN) is listed as “Form CS1”. The “Crystalline form after tableting” value in data set [4] (Pressure 14 kN) is on record as “Form CS1”. The “Crystalline form after compression into tablets under different pressures” value in data set [4] (different pressures) was “remains unchanged”. In data set [5], the Adhesiveness entry is recorded as “low adhesiveness”. In [5] (setting [10]), the “Average amount (mg) of material sticking to the punch” value was 0* mg, the “Cumulative amount (mg) of material sticking to the punch” value is 0* mg and the “Maximum amount (mg) of material sticking to the punch” value was determined as 0.07 mg. In addition, the Compressibility result in data set [6] was “good compressibility”. Also, the “Tensile strength (MPa)” value in data set [6] (T=2H/πDL, φ6 mm round tooling, 80 mg, 10 kN) is 1.04 MPa. In data set [6] (setting [11]), the “Diameter (mm)” value is 6.95 mm and the “Thickness (mm)” value was found to be 2.40 mm.

Turning to `Cl.c1ccc2cc([C@]34CNC[C@H]3C4)ccc2c1` [prior art Form B, (1R,5S)-1-(naphthalen-2-yl)-3-azabicyclo[3.1.0]hexane hydrochloride, reference compound], the “Crystalline form after grinding” value in [1] is recorded as “changed”; in data set [1] (listed as Form B), “partially converts to Form A”. Moreover, the “Solubility (mg/mL) FaSSIF” value in data set [2] (setting [12]) is given as 52.0 mg/mL. Further, the “Solubility (mg/mL) eSSIF” value in data set [2] (equilibration 4 h, HPLC) amounted to 29.2 mg/mL. Moreover, in data set [7], the Morphology result is given as “needle-like crystals”.

Consider `Cl.c1ccc2cc([C@]34CNC[C@H]3C4)ccc2c1` [Form C, (1R,5S)-1-(naphthalen-2-yl)-3-azabicyclo[3.1.0]hexane hydrochloride], for which the “Crystalline form after storage” value is “converted to Form A” in data set [8]; “converted to a mixture of Form A and Form B” in [9].

Consider `Cl.c1ccc2cc([C@]34CNC[C@H]3C4)ccc2c1` [prior art Form A, (1R,5S)-1-(naphthalen-2-yl)-3-azabicyclo[3.1.0]hexane hydrochloride, reference compound], for which the Crystallinity after grinding result was “decreased obviously” in data set [1] and “obvious decrease of crystallinity” in data set [1] (listed as Form A). Besides, in data set [2] (setting [12]), the “Solubility (mg/mL) FaSSIF” value is on record as 46.9 mg/mL. The “Solubility (mg/mL) eSSIF” value in [2] (equilibration 4 h, HPLC) is recorded as 36.0 mg/mL. Moreover, the Morphology result in data set [7] is listed as “needle-like crystals”.
